According to patent US11944605B2, “Rapamycin analogs and uses thereof” (Janssen Pharmaceutica NV, priority 2018, dated 2024):
Entries after “also recorded” stand apart in the source; their conditions may differ. Like-named read-outs stand apart in the source and are kept apart here.

How the values were obtained:
[1] = test system: IFN-γ production; experiment: IFN-γ production in allogenic mixed lymphocyte reaction; type: cell-based; conditions: for IC50: read-out: IFN-γ Inhibition IC50s
Method: Assessment of Effect on IFN-γ Production in Allogenic Mixed Lymphocyte Reaction
The effect of rapamycin, everolimus, I-29, and I-117 on IFN-y production was evaluated in an allogenic mixed lymphocyte reaction (E.g., Eleftheriadis, T. et al., Int. J. Mol. Med., 37(5): 1412-20 (2016) https://doi.org/10.3892/ijmm.2016.2547).

[2] = test system: mTORC1 pathway in tuberous sclerosis (TSC2) negative (TSC−/−) MEF cells; experiment: Western blot, mTORC1 pathway in TSC−/− MEF cells; type: cell-based, mouse
Method: (§1) The methods employed were substantially similar to those described above. Compounds were evaluated in PC3 cells, Jurkat cells, wild-type mouse embryotic fibroblast (MEF) cells, tuberous sclerosis 2 (TSC2) negative (TSC −/−) MEF cells, and tuberous sclerosis 2 (TSC2) positive (TSC +/+) MEF cells. Cells were incubated with compounds of the present invention for various time periods (e.g., 5 minutes, 15 minutes, 30 minutes, 90 minutes, 24 hours, or 48 hours), and evaluated according to known methodologies, such as those herein described.

[3] = Glucose tolerance (ipGTT) during chronic treatment in lean C57Bl/6 mice; type: in vivo; conditions: chronic treatment 15 days, I-29 10 mg/kg PO, rapamycin 10 mg/kg IP
Method: Assessment of Effect of Chronic Treatment with I-29 on Glucose Tolerance and Insulin Sensitivity in Lean C57Bl/6 Mice
C57Bl/6 mice (n=12; 8 weeks of age) were randomized and baseline measurements (weight, fasting glucose, and fasting insulin) were measured four (4) days prior to the administration of compounds or vehicle. Animals were then treated with I-29 (10 mg/kg PO), rapamycin (10 mg/kg IP) or vehicle (PO or IP) for 19 days. On day 7 and 14 animals were weighed and fed glucose and fed insulin levels were evaluated. Animals were fasted overnight on day 14 and on day 15 fasting insulin and an intraperitoneal glucose tolerance test (ipGTT) were evaluated. On day 19 animals were sacrificed one (1) hour after compound or vehicle administration. Tissues were harvested for evaluating compound levels and pharmacodynamics.

[4] = test system: T389 of S6K1 (an mTORC1 substrate); conditions: PC3, HEK-293T, HeLa, and H460 cells, 1 or 24 hour treatments; cited from earlier work
[5] = test system: Akt phosphorylation; conditions: mice treated daily for 1 week; cited from earlier work
[6] = test system: mTORC1 pathway in tuberous sclerosis 2 (TSC2) positive (TSC+/+) MEF cells; experiment: Western blot, mTORC1 pathway in TSC+/+ MEF cells; type: cell-based, mouse
Method: as §1

[7] = test system: Akt (an mTORC2 substrate); conditions: cited from earlier work
[8] = Pharmacokinetic properties in C57Bl/6 mice; type: in vivo; conditions: for half-life: read-out: Terminal T1/2 (converted)
Method: Pharmacokinetic Properties
The pharmacokinetic properties of compounds of the present invention were evaluated in C57Bl/6 mice and compared with rapamycin. Animals were fasted overnight prior to administration of I-29 or rapamycin (1 mg/kg IV, 10 mg/kg PO, or 2 mg/kg IP). Animals were bled at time intervals for up to 48 hours following administration of compounds. Whole blood from each mouse was indivisually collected in polypropylene tubes and immediately centrifuged. Alloquates of the separated plasma were promptly prepared for HPCL analysis.

[9] = test system: mTORC1 pathway (pS6K1 T389) in PC3 cells; experiment: Western blot, mTORC1 pathway (pS6K1) in PC3 cells; type: cell-based
In short: (§2)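 Triton lysates analysed by Western blot for pS6K1 and pAkt, detected with IRDye 800 anti-rabbit secondary on a Li-Cor imager.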

[10] = test system: Lmn−/− mice; conditions: short-term treatment; cited from earlier work
[11] = test system: glucose uptake in human adipocytes; conditions: 0.01 μM; cited from earlier work
[12] = test system: mTORC2 pathway (Akt phosphorylation) in PC3 cells; experiment: Western blot, mTORC2 pathway (pAkt) in PC3 cells; type: cell-based; conditions: for inhibition of mTORC2 (Akt phosphorylation): 24 hours
In short: as §2

[13] = test system: AKT (PKB) Ser473 phosphorylation; conditions: human adipocytes, 0.01 μM; cited from earlier work
[14] = test system: 4E-BP1 phosphorylation in PC3 cells; experiment: Western blot, 4E-BP1 phosphorylation in PC3 cells; type: cell-based; conditions: 24 hours
[15] = test system: mTORC1 pathway in Jurkat cells; experiment: Western blot, mTORC1 pathway in Jurkat cells; type: cell-based; conditions: 24 hrs
Method: as §1

[16] = test system: mTORC1 pathway in wild-type MEF cells; experiment: Western blot, mTORC1 pathway in wild-type MEF cells; type: cell-based, mouse
Method: as §1

[17] = test system: 4E-BP1 phosphorylation in TSC+/+ MEF cells; experiment: Western blot, 4E-BP1 phosphorylation in TSC+/+ MEF cells; type: cell-based, mouse; conditions: 24 hours
Method: as §1

[18] = test system: mTORC2 (Akt phosphorylation) in wild-type MEF cells; experiment: Western blot, mTORC2 pathway (pAkt) in wild-type MEF cells; type: cell-based, mouse; conditions: 24 hours
Method: as §1

[19] = test system: mTORC1 over mTORC2; experiment: mTORC1 selectivity over mTORC2 at 24 hrs (Western blot based pS6K1 and pAKT assay); type: cell-based; conditions: 24 hrs
[20] = test system: mTORC2 (Akt phosphorylation) in TSC+/+ MEF cells; experiment: Western blot, mTORC2 pathway (pAkt) in TSC+/+ MEF cells; type: cell-based, mouse; conditions: 90 minutes
Method: as §1

[21] = test system: mTORC2 (Akt phosphorylation) in Jurkat cells; experiment: Western blot, mTORC2 pathway (pAkt) in Jurkat cells; type: cell-based; conditions: 24 hrs
Method: as §1

[22] = test system: mTORC2 (Akt phosphorylation) in TSC−/− MEF cells; experiment: Western blot, mTORC2 pathway (pAkt) in TSC−/− MEF cells; type: cell-based, mouse
Method: as §1

[23] = test system: pS6K1 (p-p70 S6 Kinase (Thr389)) in MCF-7 cells; experiment: AlphaLISA Ultra pS6K1 Assay; type: cell-based; conditions: Homo sapiens, 1.5 h; MCF7 cells, 90 min
In short: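 AlphaLISA Ultra read-out (acceptor beads 2 h, then donor beads 2 h) on thawed lysates of MCF-7 cells. Cells had 20–24 h after seeding and a 2 h medium change, then 90 min of compound exposure at 0.5% final DMSO, with lysates stored at −80 °C.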

## CO[C@H]1C[C@@H]2CC[C@@H](C)[C@@](O)(O2)C(=O)C(=O)N2CCCC[C@H]2C(=O)O[C@H]([C@H](C)C[C@@H]2CC[C@@H](O)[C@H](OC)C2)CC(=O)[C@H](C)/C=C(\C)[C@@H](O)[C@@H](OC)C(=O)[C@H](C)C[C@H](C)/C=C/C=C/C=C/1C [Rapamycin, rapamycin]
[1]
  inhibition of IFN-γ production: significantly inhibited
  IC50: 2.4 nM
[2]; 24 hours
  inhibition of the mTORC1 pathway: strong inhibition
[3]
  glucose intolerance in intraperitoneal glucose tolerance test (ipGTT): induced glucose intolerance
[4]
  S6K1 phosphorylation: inhibited
[5]
  Akt phosphorylation in the thymus, adipose tissue, heart, and lung: decreased
[6]; 90 minutes
  inhibition of the mTORC1 pathway: strong inhibition
[6]; 24 hours
  inhibition of the mTORC1 pathway: strong inhibition
[7]; HEK-293T cells
  inhibition of pAKT: Partial inhibition
[7]; HeLa cells
  Akt phosphorylation: increase
[7]; PC3 cells
  Akt phosphorylation: strongly decreased
[8]; 2 mg/kg IP
  F: 35.1%
[8]; 10 mg/kg PO
  F: 0.8%
[8]; mouse, plasma, 1 mg/kg IV
  AUC(0-inf): 3630 ng·h/mL
  AUC(0-t): 3620 ng·h/mL
  MRT inf: 6.27 h
  clearance: 4.6 mL/min/kg
  half-life: 8.35 h
[8]; mouse, plasma, 1 mg/kg IV, read-out: Vss
  Vd: 1.73 L/kg
[8]; mouse, plasma, 2 mg/kg IP
  AUC(0-inf): 2540 ng·h/mL
  AUC(0-t): 2480 ng·h/mL
  Cmax: 614 ng/mL
  Tmax: 0.25 h
  half-life: 4.8 h
[8]; mouse, plasma, 10 mg/kg PO
  AUC(0-t): 292 ng·h/mL
  Cmax: 52.8 ng/mL
  Tmax: 3 h
[9]; PC3 cells, 24 and 48 hours
  inhibition of the mTORC1 pathway (pS6K1): significant reduction; also recorded: strong inhibition
[9]; PC3 cells, 30, 15, or 5 minutes
  inhibition of the mTORC1 pathway: time dependent inhibition
[9]; PC3 cells, 90 minutes
  inhibition of the mTORC1 pathway: strong inhibition
[9]; PC3 cells, 24 hours
  inhibition of the mTORC1 pathway: strong inhibition
[10]
  enhanced survival: ~50%
[11]
  glucose uptake: reduced
[12]; 24 and 48 hours
  inhibition of the mTORC2 pathway (Akt phosphorylation): inhibition; also recorded: inhibited
[12]
  inhibition of mTORC2 (Akt phosphorylation): dose dependent inhibition
[13]
  AKT (PKB) Ser473 phosphorylation: reduced
[14]
  inhibition of 4E-BP1 phosphorylation: no inhibition

## CO[C@H]1C[C@@H]2CC[C@@H](C)[C@@](O)(O2)C(=O)C(=O)N2CCCC[C@H]2C(=O)O[C@H]([C@H](C)C[C@@H]2CC[C@@H](OCCO)[C@H](OC)C2)CC(=O)[C@H](C)/C=C(\C)[C@@H](O)[C@@H](OC)C(=O)[C@H](C)C[C@H](C)/C=C/C=C/C=C/1C [Everolimus, everolimus, reference compound]
[1]
  inhibition of IFN-γ production: significantly inhibited
  IC50: 15.2 nM
[2]; 90 minutes
  inhibition of the mTORC1 pathway: strong inhibition
[2]; 24 hours
  inhibition of the mTORC1 pathway: strong inhibition
[15]
  inhibition of the mTORC1 pathway: strong inhibition
[16]; 90 minutes
  inhibition of the mTORC1 pathway: strong inhibition
[16]; 24 hours
  inhibition of the mTORC1 pathway: strong inhibition
[6]; 90 minutes
  inhibition of the mTORC1 pathway: strong inhibition
[6]; 24 hours
  inhibition of the mTORC1 pathway: strong inhibition
[17]
  inhibition of 4E-BP1 phosphorylation: no inhibition
[9]; PC3 cells, 90 minutes
  inhibition of the mTORC1 pathway: strong inhibition
[9]; PC3 cells, 24 hours
  inhibition of the mTORC1 pathway: strong inhibition
[12]
  inhibition of mTORC2 (Akt phosphorylation): dose dependent inhibition
[14]
  inhibition of 4E-BP1 phosphorylation: no inhibition

## CO[C@@H]1C[C@H](C[C@@H](C)[C@@H]2CC(=O)[C@H](C)/C=C(\C)[C@@H](O)[C@@H](OC)C(=O)[C@H](C)C[C@H](C)/C=C/C=C/C=C(\C)[C@@H](OCCOCCO)C[C@@H]3CC[C@@H](C)[C@@](O)(O3)C(=O)C(=O)N3CCCC[C@H]3C(=O)O2)CC[C@H]1OCCO [I-117, (21E,23E,25E,26E,34R,35S,36R,37R,39S,41S,43S,44S,45R,46R, 55R)-45,55-dihydroxy-43-[2-(2-hydroxyethoxy)ethoxy]-44-[(1R)-2-[(1S,3R, 4R)-4-(2-hydroxyethoxy)-3-methoxy-cyclohexyl]-1-methyl-ethyl]-46-methoxy-34,35,36,37,47,48-hexamethyl-66, 67-dioxa-56-azatricyclohexatriaconta-21,23,25(47),26(48)-tetraene-49, 50,51,52,53-pentone]
[1]
  inhibition of IFN-γ production: did not inhibit
  IC50: > 3000 nM
[2]; 90 minutes
  inhibition of the mTORC1 pathway: strong inhibition
[2]; 24 hours
  inhibition of the mTORC1 pathway: strong inhibition
[18]
  inhibition of mTORC2 (Akt phosphorylation): do not inhibit
[15]
  inhibition of the mTORC1 pathway: strong inhibition
[16]; 24 hours
  inhibition of the mTORC1 pathway: moderate inhibition; also recorded: strong inhibition
[19]
  mTORC1 selective @ 24 hrs: YES
[20]
  inhibition of mTORC2 (Akt phosphorylation): do not inhibit
[6]; 90 minutes
  inhibition of the mTORC1 pathway: moderate concentration dependent inhibition
[21]
  inhibition of mTORC2 (Akt phosphorylation): do not inhibit
[9]; PC3 cells, 24 hours
  inhibition of the mTORC1 pathway: strong inhibition
[22]; 90 minutes
  inhibition of mTORC2 (Akt phosphorylation): do not inhibit
[22]; 24 hours
  inhibition of mTORC2 (Akt phosphorylation): do not inhibit
[12]
  inhibition of mTORC2 (Akt phosphorylation): does not inhibit
[23]
  IC50: < 0.1 nM
[14]
  inhibition of 4E-BP1 phosphorylation: no inhibition
